Assay results taken from paper PMC10165357, “Brain p3‐Alcβ peptide restores neuronal viability impaired by Alzheimer's amyloid β‐peptide” (EMBO Molecular Medicine, 2023).
Ends that are not written are not given here.

How the values were obtained:
[1] = WT mice, s.c. injection 5 mg/kg, n = 4 per time point
Description: IgG was purified with antigen‐coupled resin and conjugated to biotin. Horseradish peroxidase‐conjugated streptavidin was purchased from Amersham/GE Healthcare (Cat #RPN1051, Little Chalfont, UK), and the tetramethyl benzidine (TMB) microwell peroxidase substrate system was obtained from SeraCare Life Sciences Inc. (Cat #5120‐0075, Milford, MA, USA). Mice were then anesthetized with 1% isoflurane, CSF was collected from the cisterna magna as described previously (Liu & Duff, [2008]), and mice were then sacrificed. […] The sensitivity of this ELISA is equivalent to that of other sELISA systems used to quantify p3‐Alcβ37 and p3‐Alcβ40 (Hata et al, [2019]). Antiserum diluted 1:10,000 was used as a capture antibody in the sELISA. The antibody was affinity‐purified with antigen‐coupled resin, and biotin‐labeled IgG was then used as the detection antibody.

[2] = test system: mitochondrial activity; details: ref Singh et al, 2017; cited from earlier work
Description: Therefore, we would like to re‐emphasize that the function of p3‐Alcβ is to increase neuronal viability and to protect neurons against Aβ‐induced toxicity, and that the target of p3‐Alcβ may not directly be Aβ peptide and Aβ aggregates/plaques. This property of p3‐Alcβ as a druggable candidate for AD therapy is likely to be distinct from immunotherapies that use anti‐Aβ antibodies. Furthermore, the fu ...

[3] = Alcβ-KO mice, subcutaneous administration
[4] = test system: Ca2+ influx in mouse primary neurons; assay: Ca2+ influx after CaCl2 administration in Ca2+-depleted medium, Fluo 4-AM (Fig 3C, 3D, 4C); type: cell-based; details: neurons div 11–14, CaCl2 2 mM, D-AP5 5, 50 and 200 μM; AUC 5–14 min; n = 6
Description: All animal studies were conducted in compliance with the ARRIVE guidelines. The mouse study was approved by the Animal Studies Committee of Hokkaido University (#18‐0168). WT C57BL/6J (CLEA, Japan, Inc), Alcβ‐KO (RBRC11514) (Gotoh et al, [2020]), App ^ NL‐F/NL‐F (RBRC06343), and App ^ NL‐G‐F/NL‐G‐F (RBRC06344) (Saito et al, [2014]) mice were housed in specific pathogen‐free (SPF) conditions with a microenvironment vent system (Allentown Inc., Allentown, NJ, USA) under a 12 h/12 h light/dark cycle with free access to food and water. Three to five male or female siblings were housed in each cage; cages were equipped with microbarrier tops. All experimental procedures with Cynomolgus monkeys were approved by the Animal Care and Use Committee of Shiga University of Medical Science and were carried out in accordance with approved guidelines (Nishimura et al, [2012]). Stored frozen pieces of the cerebral cortex of monkeys were used. Sprague–Dawley rats (8‐week‐old) were purchased from Japan SLC Inc. (Hamamatsu, Japan) and housed with their littermates. […] All animal protocols and related experiments were approved by the Ethics Committees of the Central Research Laboratory at Hamamatsu Photonics and Hamamatsu University School of Medicine. […]

[5] = test system: Aβo-induced Ca2+ influx in mouse primary neurons; assay: Aβ42 oligomer-induced Ca2+ influx, Fluo 4-AM (Fig 3A, 3B, 4A, 4D, EV2A, EV2B); type: cell-based; details: neurons div 14, Aβo 5.2 μM

HRGHQPPPEMA [p3‐Alcβ9‐19]
transfer into the brain, p3-Alcβ9-19 levels in CSF by sELISA [1]: successful transfer

CC12CC3CC(C)(C1)CC(N)(C3)C2 [memantine]
mitochondrial activity [2]: does not increase mitochondrial activity

VLSSQQFLHRGHQPPPEMAGHSLASSHRNSMIPSAAT [p3‐Alcβ37]
transport into the brain [3]: transported into the brain

NC(CCCP(=O)(O)O)C(=O)O (stereo not drawn) [D‐AP5]
Ca2+ influx after Ca2+ administration with D-AP5 (Fig 4C) [4]: slightly, but not significantly, reduced
Aβo-induced Ca2+ entry with NMDA antagonist (Fig 4A) ([5]; D-AP5 50 μM, AUC 5–29 min, n = 4): suppressed
suppression of Aβo-triggered Ca2+ influx, single agents (Fig 4D) ([5]; p3-Alcβ9-19 50 μM or D-AP5 50 μM, AUC 5–28 min, n = 12): suppressed significantly
